Assay results reported in patent US20250318528A1, “HERBICIDE COMPOSITION AND WEED CONTROLLING METHOD” (SUMITOMO CHEMICAL COMPANY, LIMITED, priority 2022, published 2025).
Structures can show the parent of a compound that is named as a salt.

Key:
Format in all cases: in vivo
[1] = system: Italian ryegrass (Lolium multiflorum); assay: Herbicidal effect, foliar spray pot test (Example 347); settings: sprayed 17 days after seeding, evaluated after 4 days, rating 0 to 100
Method: (§1) The formulation (I-15) was produced in the same manner as in Example 346.
(§2) After filling a plastic pot with soil, common barnyardgrass (Echinochloa crus-galli) and Italian ryegrass (Lolium multiflorum) were seeded therein and grown in a greenhouse. The weeds were then cultivated in the greenhouse, and 17 days after seeding, a spray liquid containing the formulation (1-15) and/or Xtendimax (350 g/L of dicamba diglycolamine salt, manufactured by Monsanto Company) prepared so that the application rate of the compound (I-15) might be 20 g/ha and the application rate of Xtendimax might be 560 g/ha as an equivalent of dicamba acid (1.608 L/ha (22.0 fluid ounce/acre) as Xtendimax) was uniformly sprayed above the pot using a spraying machine so that the spray liquid amount might be 218 L/ha. Thereafter, the weeds were grown in the greenhouse for 4 days and the herbicidal effect was evaluated.
(§3) From the results of the herbicidal effect (value of A or B) for the single use of each of the compounds, the expected value of the herbicidal effect when the compounds were combined was determined according to the Colby's equation: […]

[2] = system: common barnyardgrass (Echinochloa crus-galli); assay: as above; settings: sprayed 17 days after seeding, evaluated after 4 days, rating 0 to 100
Method: as §1, §2, §3

weeds = assay: Examples 1 to 23 with compound (I-15) replaced by another compound (I) (Examples 24 to 115); settings: as Examples 1 to 23 with compound (I-15) replaced; used with pyroxasulfone, saflufenacil, flumioxazin and/or glyphosate-potassium salt; crop soybean, corn or cotton
[3] = system: Italian ryegrass (Lolium multiflorum); assay: Herbicidal effect, foliar spray pot test (Example 346); settings: sprayed 17 days after seeding, evaluated after 4 days, rating 0 to 100
Method: (§4) The compound (I-15) (55 mg), 76.5 mg of Emulsogen TS290 (polyoxyethylene tristyryl phenyl ether, manufactured by Clariant) and 76.5 mg of Phenylsulfonat CAL (mixture of 70% calcium dodecylbenzenesulfonate and 30% iso-butanol, manufactured by Clariant) were dissolved in Solvesso 200ND (aromatic hydrocarbon, manufactured by Exxon Mobile Corporation) to make 1 ml in total, thus producing an emulsifiable concentrate (hereinafter referred to as formulation (I-15)).
(§5) After filling a plastic pot with soil, common barnyardgrass (Echinochloa crus-galli) and Italian ryegrass (Lolium multiflorum) were seeded therein and grown in a greenhouse. The weeds were then cultivated in the greenhouse, and 17 days after seeding, a spray liquid containing the formulation (1-15) and/or Roundup PowerMax (660 g/L of glyphosate potassium salt, manufactured by Monsanto Company) prepared so that the application rate of the compound (I-15) might be 20 g/ha and the application rate of Roundup PowerMax might be 1262 g/ha as an equivalent of glyphosate acid (2.338 L/ha (32 fluid ounce/acre) as Roundup PowerMax) was uniformly sprayed above the pot using a spraying machine so that the spray liquid amount may be 218 L/ha. Thereafter, the weeds were grown in the greenhouse for 4 days and the herbicidal effect was evaluated.
as §3

[4] = system: common barnyardgrass (Echinochloa crus-galli); assay: as above; settings: sprayed 17 days after seeding, evaluated after 4 days, rating 0 to 100
Method: as §4, §5, §3

[5] = system: Italian ryegrass (Lolium multiflorum); assay: Herbicidal effect, foliar spray pot test (Example 349); settings: sprayed 21 days after seeding, evaluated after 4 days, rating 0 to 100
Method: (§6) The formulation (1-41) was produced in the same manner as in Example 348.
(§7) After filling a plastic pot with soil, common barnyardgrass (Echinochloa crus-galli) and Italian ryegrass (Lolium multiflorum) were seeded therein and grown in a greenhouse. The weeds were then cultivated in the greenhouse, and 21 days after seeding, a spray liquid containing the formulation (1-41) and/or EnlistOne (670 g/L of 2,4-D choline salt, manufactured by Dow AgroSciences) prepared so that the application rate of the compound (I-41) might be 20 g/ha and the application rate of EnlistOne might be 798 g/ha as an equivalent of 2,4-D choline salt (1.754 L/ha (24 fluid ounce/acre) as […]) was uniformly sprayed above the pot using a spraying machine so that the spray liquid amount might be 218 L/ha. Thereafter, the weeds were grown in the greenhouse for 4 days and the herbicidal effect was evaluated.
as §3

[6] = system: common barnyardgrass (Echinochloa crus-galli); assay: as above; settings: sprayed 21 days after seeding, evaluated after 4 days, rating 0 to 100
Method: as §6, §7, §3

[7] = system: Italian ryegrass (Lolium multiflorum); assay: Herbicidal effect, foliar spray pot test (Example 348); settings: sprayed 17 days after seeding, evaluated after 4 days, rating 0 to 100
Method: as §4, with “(I-41)” for “(I-15)”, “(I-41)).” for “(I-15)).”
(§8) After filling a plastic pot with soil, common barnyardgrass (Echinochloa crus-galli) and Italian ryegrass (Lolium multiflorum) were seeded therein and grown in a greenhouse. The weeds were then cultivated in the greenhouse, and 17 days after seeding, a spray liquid containing the formulation (1-41) and/or Liberty (280 g/L of glufosinate ammonium salt, manufactured by Bayer) prepared so that the application rate of the compound (I-41) might be 20 g/ha and the application rate of Liberty might be 594 g/ha as glufosinate ammonium salt (2.12 L/ha (29.0 fluid ounce/acre) as Liberty) was uniformly sprayed above the pot using a spraying machine so that the spray liquid amount might be 218 L/ha. Thereafter, the weeds were grown in the greenhouse for 4 days and the herbicidal effect was evaluated.
as §3

[8] = system: common barnyardgrass (Echinochloa crus-galli); assay: as above; settings: sprayed 17 days after seeding, evaluated after 4 days, rating 0 to 100
Method: as §4, with “(I-41)” for “(I-15)”, “(I-41)).” for “(I-15)).”
as §8, §3

[9] = dicamba diglycolamine salt 560 g/ha (dicamba acid equivalent, Xtendimax) alone
[10] = compound (I-15) 20 g/ha alone, 218 L/ha
[11] = 2,4-D choline salt 798 g/ha (EnlistOne) alone
[12] = glufosinate ammonium salt 594 g/ha (Liberty) alone
[13] = compound (I-41) 20 g/ha alone, 218 L/ha
[14] = glyphosate potassium salt 1,262 g/ha (glyphosate acid equivalent, Roundup PowerMax) alone

COc1c(Cl)ccc(Cl)c1C(=O)O.NCCOCCO [Dicamba diglycolamine salt, dicamba diglycolamine salt, reference compound]
Herbicidal effect Observed value [1, 9]: 0 | Herbicidal effect Observed value [2, 9]: 5

CCOC(=O)C(C)OC(=O)C1(Oc2cc(-n3c(=O)cc(C(F)(F)F)n(C)c3=O)c(F)cc2Cl)CC1 (centres unmarked) [Compound (I-29)]
weed control effect compared to the single use of each of the compounds (weeds): synergistic weed control effect

CCOC(=O)C(CC)OC(=O)C1(Oc2cc(-n3c(=O)cc(C(F)(F)F)n(C)c3=O)c(F)cc2Cl)CC1 (centres unmarked) [Compound (I-33)]
weed control effect compared to the single use of each of the compounds (weeds): synergistic weed control effect

COC(=O)C(C)OC(=O)C1(Oc2cc(-n3c(=O)cc(C(F)(F)F)n(C)c3=O)c(F)cc2Cl)CC1 (centres unmarked) [Compound (I-15)]
Herbicidal effect Observed value [3, 10]: 20 | Herbicidal effect Observed value [4, 10]: 70 | Herbicidal effect Observed value [1, 10]: 20 | Herbicidal effect Observed value [2, 10]: 70

C[N+](C)(C)CCO.O=C([O-])COc1ccc(Cl)cc1Cl [2,4-D choline salt, reference compound]
Herbicidal effect Observed value [5, 11]: 5 | Herbicidal effect Observed value [6, 11]: 10

CP(=O)(O)CCC(N)C(=O)O (centres unmarked) [Glufosinate ammonium salt, glufosinate ammonium salt, reference compound]
Herbicidal effect Observed value [7, 12]: 40 | Herbicidal effect Observed value [8, 12]: 70

CCOC(=O)C(C)(C)OC(=O)C1(Oc2cc(-n3c(=O)cc(C(F)(F)F)n(C)c3=O)c(F)cc2Cl)CC1 [Compound (I-30)]
weed control effect compared to the single use of each of the compounds (weeds): synergistic weed control effect

CCOC(=O)C1(OC(=O)C2(Oc3cc(-n4c(=O)cc(C(F)(F)F)n(C)c4=O)c(F)cc3Cl)CC2)CC1 [Compound (I-41)]
Herbicidal effect Observed value [7, 13]: 20 | Herbicidal effect Observed value [8, 13]: 50 | Herbicidal effect Observed value [5, 13]: 20 | Herbicidal effect Observed value [6, 13]: 70 | weed control effect compared to the single use of each of the compounds (weeds): synergistic weed control effect

O=C(O)CNCP(=O)(O)O [Glyphosate potassium salt, reference compound]
Herbicidal effect Observed value [3, 14]: 10 | Herbicidal effect Observed value [4, 14]: 30
